Measurements taken from the supplement of paper PMC10307832.

Key:
Assay in all cases: relative viability (nuclei count vs DMSO), 5 days (fraction); higher = more cells survive
[1] = compound: CC(C)(C)c1cc(NC(=O)Nc2ccc(-c3cn4c(n3)sc3cc(OCCN5CCOCC5)ccc34)cc2)no1 [Quizartinib] + COc1cccc2cc(-c3nc([C@H]4CC[C@H](C(=O)O)CC4)n4ncnc(N)c34)[nH]c12 [OSI-027] (partner 0.5 µM)
Procedure, shortened: (§1)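 Medians of duplicate plates are given as relative viability. That measure is the nuclei count in treated wells divided by the count in vehicle wells. Counts were taken on 4× images of lung cancer cell lines in 1536-well plates, 5 days after pin-tool dosing the day after seeding with one drug alone or a fixed anchor-drug dose plus five library-drug doses (not always all listed) in √10 steps.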

[2] = compound: CC(C)(C)c1cc(NC(=O)Nc2ccc(-c3cn4c(n3)sc3cc(OCCN5CCOCC5)ccc34)cc2)no1 [Quizartinib] + O=C(CCCCCCC(=O)Nc1ccccc1)NO [Vorinostat] (partner 1 µM)
Procedure, shortened: as §1

[3] = compound: COCC[n+]1c2c(n(Cc3cnccn3)c1C)C(=O)c1ccccc1C2=O [YM155] + C[C@]1(O)C[C@@H](c2nc(-c3ccc4ccc(-c5ccccc5)nc4c3)c3c(N)nccn32)C1 [Linsitinib] (partner 1 µM)
Procedure, shortened: as §1

[4] = compound: COCC[n+]1c2c(n(Cc3cnccn3)c1C)C(=O)c1ccccc1C2=O [YM155] + CC1(C)CCC(c2ccc(Cl)cc2)=C(CN2CCN(c3ccc(C(=O)NS(=O)(=O)c4ccc(N[C@H](CCN5CCOCC5)CSc5ccccc5)c(S(=O)(=O)C(F)(F)F)c4)cc3)CC2)C1 [Navitoclax] (partner 0.5 µM)
Procedure, shortened: as §1

Cell Line	relative viability ([1]; first compound 0.001 µM)	relative viability ([1]; first compound 0.003162 µM)	relative viability ([1]; first compound 0.01 µM)	relative viability ([1]; first compound 0.03162 µM)	relative viability ([1]; first compound 0.1 µM)	relative viability ([2]; first compound 0.001 µM)	relative viability ([2]; first compound 0.003162 µM)	relative viability ([2]; first compound 0.01 µM)	relative viability ([2]; first compound 0.03162 µM)	relative viability ([2]; first compound 0.1 µM)	relative viability ([3]; first compound 0.002 µM)	relative viability ([3]; first compound 0.006325 µM)	relative viability ([3]; first compound 0.02 µM)	relative viability ([3]; first compound 0.06325 µM)	relative viability ([4]; first compound 0.002 µM)	relative viability ([4]; first compound 0.006325 µM)	relative viability ([4]; first compound 0.02 µM)	relative viability ([4]; first compound 0.06325 µM)
NCI-H2342	0.664	0.592	0.603	0.68	0.621	0.804	0.717	0.669	0.69	0.617								
CAL-12T	0.658	0.683	0.862	0.503	0.846	0.684	0.711	0.914	0.511	0.943	0.818	0.98	0.9	0.781	1.22	1.16	1.16	0.299
NCI-H1395	0.697	0.749	0.645	0.586	0.691	0.685	1.09	0.695	0.623	0.858	1.11	0.889	1.09	1.14	1.4	0.799	1.53	1.55
NCI-H1299											1	0.962	1	0.88	1.08	0.996	1.01	1.03
NCI-H1703											0.474	1.25	0.622	0.411	1.07	1.29	0.938	0.319
HCC-15		0.71	0.583		0.644	0.747	0.799	0.882	0.823	0.832	0.809	0.627	0.872	0.798	0.66	0.673	0.72	0.706
SW 900	0.533	0.508		0.512	0.569	0.402	0.561	0.373	0.608	0.583								
NCI-H661	0.66	0.594	0.692	0.693	0.721	0.724	0.812	0.87	0.807	0.888	0.697	0.699	0.54	0.598				
NCI-H647	0.627	0.654	0.689	0.596	0.648	0.567	0.494	0.655	0.688	0.998	1.11	1.37	0.996	0.857	0.947	1.17	0.855	0.442
NCI-H650	0.527	0.505	0.428	0.548	0.61	0.464	0.445	0.416	0.456	0.54	0.721	0.857	0.966	0.784				
ABC-1	0.428	0.472	0.495	0.383	0.415		1.24	0.963	0.793	1.65	0.727	0.457	0.153	0.233				
EBC-1											0.8	0.925	0.864	0.755	0.428	0.404	0.458	0.389
IA-LM						0.71	0.811		0.874	0.955	0.392	0.697	0.745	0.373	0.723	0.757	0.811	0.585
NCI-H522	0.649	0.764	0.694	0.702	0.762	0.803	0.849	0.818	0.874	0.834								
LCLC-103H	0.432	0.503	0.422	0.475	0.487	0.743	0.735	0.663	0.812	0.779	0.999	0.974	1.16	1.16				
NCI-H1792		0.73	0.707	0.589	0.733						0.507	0.548	0.552	0.626	0.595	0.615	0.63	0.612
A549											0.61	0.576	0.544	0.732	1.28	1.24	1.11	0.14
NCI-H1623	0.457	0.419	0.41	0.383	0.412													
NCI-H1650	0.414	0.738	0.598		0.494	0.499	0.581	0.635		0.445					1.23	1.08	0.835	0.23
NCI-H1563	0.734	0.701	0.78	0.696	0.667						1.26	1.38	1.24	1.28				
NCI-H358	0.706	0.676	0.768	0.287	0.72	0.733	0.572	0.803		0.815	0.708	0.689	0.778	0.253				
NCI-H2170	0.695	0.659	0.825	0.774	0.816	0.745	0.803	0.808	0.89	0.867					0.545	0.572	0.524	0.692
Calu-6											0.946	0.836	0.848	0.175	0.849	0.589	0.191	0.112
ChaGo-K-1	0.574	0.613	0.61	0.514	0.584		0.709	0.758	0.719	0.773					1.14	0.928	0.785	0.93
